Assay results reported in article PMC6556873, “Rapid Covalent-Probe Discovery by Electrophile-Fragment Screening” (Journal of the American Chemical Society, 2019).
Like-named read-outs stand apart in the source and are kept apart here.

Assays:
in vitro [1] = test: in vitro; set-up: species or system HB2, CCD841; conditions: human, hek293 cells
in vitro [2] = test: in vitro; set-up: species or system HB2, HEK293; conditions: human, ccd841 cells
PCAF = target: T1, PCAF (Homo sapiens, UniProt Q92831); set-up: Intact protein LC/MS covalent labelling, fragments in pools of five, 200 uM each, 4 °C; conditions: 24 h, 4 °C, pool of five; 200 µM; covalent
T1 construct: gene KAT2B
T1 sequence (Q92831 whole entry, the tested form may be a part): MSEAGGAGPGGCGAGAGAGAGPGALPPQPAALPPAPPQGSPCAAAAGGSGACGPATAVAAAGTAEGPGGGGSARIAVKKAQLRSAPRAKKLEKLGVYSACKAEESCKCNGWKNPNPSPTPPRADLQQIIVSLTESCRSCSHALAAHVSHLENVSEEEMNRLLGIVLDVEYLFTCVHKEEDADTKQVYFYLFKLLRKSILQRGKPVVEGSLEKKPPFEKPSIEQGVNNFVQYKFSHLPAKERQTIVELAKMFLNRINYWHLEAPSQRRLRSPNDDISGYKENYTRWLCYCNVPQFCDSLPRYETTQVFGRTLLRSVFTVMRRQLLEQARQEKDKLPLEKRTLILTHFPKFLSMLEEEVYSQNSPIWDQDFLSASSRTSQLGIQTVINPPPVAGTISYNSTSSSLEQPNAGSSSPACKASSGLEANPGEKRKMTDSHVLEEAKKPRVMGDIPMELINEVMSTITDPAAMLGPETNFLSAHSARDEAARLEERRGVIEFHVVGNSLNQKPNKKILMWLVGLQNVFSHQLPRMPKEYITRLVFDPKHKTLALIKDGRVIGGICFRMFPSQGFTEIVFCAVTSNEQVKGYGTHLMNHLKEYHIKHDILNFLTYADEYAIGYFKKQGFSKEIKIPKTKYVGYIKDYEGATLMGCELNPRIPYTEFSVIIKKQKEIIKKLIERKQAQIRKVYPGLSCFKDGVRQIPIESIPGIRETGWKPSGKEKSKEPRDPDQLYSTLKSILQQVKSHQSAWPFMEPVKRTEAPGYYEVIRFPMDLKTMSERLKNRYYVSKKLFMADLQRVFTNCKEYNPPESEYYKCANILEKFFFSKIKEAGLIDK

BSA = target: T2, BSA (Bos taurus, UniProt P02769); set-up: Intact protein LC/MS covalent labelling, fragments in pools of five, 200 uM each, 4 °C; conditions: 24 h, 4 °C, pool of five; 200 µM; covalent
T2 construct: gene ALB
T2 sequence (P02769 whole entry, the tested form may be a part): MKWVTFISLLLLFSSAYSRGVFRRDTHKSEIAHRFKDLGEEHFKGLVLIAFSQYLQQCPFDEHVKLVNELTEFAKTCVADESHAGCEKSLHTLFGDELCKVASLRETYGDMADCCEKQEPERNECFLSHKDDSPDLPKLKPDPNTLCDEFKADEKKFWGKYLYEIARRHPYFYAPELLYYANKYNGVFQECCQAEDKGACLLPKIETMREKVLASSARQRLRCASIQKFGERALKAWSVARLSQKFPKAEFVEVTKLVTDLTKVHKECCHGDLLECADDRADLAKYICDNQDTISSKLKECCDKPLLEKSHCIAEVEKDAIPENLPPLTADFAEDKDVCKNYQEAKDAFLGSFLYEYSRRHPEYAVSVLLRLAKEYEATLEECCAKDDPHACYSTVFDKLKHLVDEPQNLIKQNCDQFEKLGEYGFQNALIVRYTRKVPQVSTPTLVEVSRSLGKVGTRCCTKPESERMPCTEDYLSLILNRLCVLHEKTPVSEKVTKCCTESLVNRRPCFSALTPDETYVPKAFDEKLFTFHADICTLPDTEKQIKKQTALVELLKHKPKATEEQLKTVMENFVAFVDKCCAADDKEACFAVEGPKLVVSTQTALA

OTUB2 (OTUB2A) = target: T3, OTUB2 (OTUB2A) (Homo sapiens, UniProt Q96DC9); set-up: Intact protein LC/MS covalent labelling, fragments in pools of five, 200 uM each, 4 °C; conditions: 24 h, 4 °C, pool of five; 200 µM; covalent
T3 construct: full length residues 1-234, E. coli BL21(DE3)-R3, His tag removed by TEV, construct 27312 Da
T3 sequence (Q96DC9 1-234): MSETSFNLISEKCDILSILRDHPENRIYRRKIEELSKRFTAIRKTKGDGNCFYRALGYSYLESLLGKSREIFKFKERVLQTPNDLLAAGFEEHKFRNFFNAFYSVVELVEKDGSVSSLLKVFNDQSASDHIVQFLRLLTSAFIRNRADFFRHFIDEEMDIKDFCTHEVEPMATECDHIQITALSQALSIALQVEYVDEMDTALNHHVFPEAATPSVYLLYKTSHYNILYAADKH

NUDT7 = target: T4, NUDT7 (Homo sapiens, UniProt P0C024); set-up: Intact protein LC/MS covalent labelling, fragments in pools of five, 200 uM each, 4 °C; conditions: 24 h, 4 °C, pool of five; 200 µM; covalent
T4 construct: residues 14-235, E. coli, pNIC28-Bsa4, N-terminal His6 tag removed by TEV, construct 26672 Da
T4 sequence (P0C024 14-235): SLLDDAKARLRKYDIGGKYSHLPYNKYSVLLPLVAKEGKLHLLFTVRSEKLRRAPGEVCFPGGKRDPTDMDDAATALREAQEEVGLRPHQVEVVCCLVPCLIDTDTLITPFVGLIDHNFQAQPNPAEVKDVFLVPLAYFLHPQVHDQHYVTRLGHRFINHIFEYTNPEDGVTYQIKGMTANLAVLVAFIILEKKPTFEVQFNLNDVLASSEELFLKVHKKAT

in vitro [3] = test: in vitro; set-up: species or system CCD841, HEK293; conditions: human, hb2 cells, read-out: HB-2 Cells Viability (%)

| SMILES | viability at 48 h, 10 µM (in vitro [1]) | viability at 48 h, 10 µM (in vitro [2]) | PCAF (PCAF) | BSA (BSA) | OTUB2 (OTUB2 (OTUB2A)) | NUDT7 (NUDT7) | viability at 48 h, 10 µM (in vitro [3]) |
| --- | --- | --- | --- | --- | --- | --- | --- |
| C=CC(=O)Nc1ccccc1[N+](=O)[O-] [PCM-0102742] | 65.8% | 66.4% | 0 | 0 | 0 | 0.41 | 41.2% |
| O=C(CCl)N(C1=CCCCC1)C1CC1 [PCM-0102745] | 98.7% | 88.3% | 0 | 0 | 0 | 0 | 96.2% |
| CC(C)N1CCC(NC(=O)CCl)CC1.Cl [PCM-0102748] | 97% | 90.3% | 0 | 0 | 0 | 0 | 90.9% |
| CC1CN(c2ccc(NC(=O)CCl)cc2)CC(C)O1 (stereo not drawn) [PCM-0102750] | 52.7% | 64.7% | 0 | 0 | 0.24 | 0 | 65.9% |
| CN(CC1COc2ccccc2O1)C(=O)CCl (stereo not drawn) [PCM-0102756] | 21.7% | 52.5% | 0 | 0 | 0.06 | 0.16 | 13.3% |
| NC(=O)c1ccccc1NC(=O)CCl [PCM-0102758] | 53.5% | 66.1% | 0 | 0 | 0 | 0 | 69.6% |
| Cc1ccc(S(=O)(=O)N2CCN(C(=O)CCl)CC2)cc1 [PCM-0102759] | 8.6% | 49.9% | 0 | 0 | 0 | 0.12 | 7.5% |
| O=C(CCl)N(C1CCCCC1)C1CCS(=O)(=O)C1 (stereo not drawn) [PCM-0102760] | 17.4% | 31.1% | 0 | 0 | 0 | 0.08 | 49.7% |
| O=C(O)C1Cc2ccccc2CN1C(=O)CCl (stereo not drawn) [PCM-0102761] | 95.9% | 91.2% | 0 | 0 | 0 | 0.21 | 98.1% |
| O=C(CCl)Nc1cc(Cl)ccc1F [PCM-0102762] | 2.4% | 49.4% | 0 | 0 | 0.13 | 0 | 11.4% |
| COC(=O)c1ccc(Cl)c(NC(=O)CCl)c1 [PCM-0102764] | 5.7% | 39.9% | 0 | 0 | 0.29 | 0.07 | 16.7% |
| C=CC(=O)N1CCC(CS(C)(=O)=O)C1 (stereo not drawn) [PCM-0102765] | 85.1% | 101% | 0 | 0 | 0 | 0 | 98.4% |
| C=CC(=O)NCC1CCCCC1 [PCM-0102766] | 79% | 114% | 0 | 0 | 0 | 0.05 | 97.5% |
| C=CC(=O)NCC1C2Cc3ccccc3C12 (stereo not drawn) [PCM-0102769] | 79.1% | 97.5% | 0 | 0 | 0.21 | 0 | 94.3% |
| C=CC(=O)N1CCC(C(=O)N(C)c2ccccc2)C1 (stereo not drawn) [PCM-0102771] | 72.2% | 106% | 0 | 0 | 0 | 0 | 100% |
| CSc1ccc(NC(=O)CCl)cc1 [PCM-0102772] | 3% | 51.2% | 0 | 0 | 0.28 | 0.13 | 15.2% |
| Cc1ccc(-c2nnc(C)[nH]2)c(NC(=O)CCl)c1 [PCM-0102775] | 53% | 45% | 0 | 0 | 0 | 0.13 | 61.1% |
| Cc1noc(C)c1CNC(=O)CCl [PCM-0102780] | 101% | 94.9% | 0 | 0 | 0 | 0.11 | 102% |
| CN(C(=O)CCl)C(C)(C)C#N [PCM-0102782] | 77.7% | 92.5% | 0 | 0 | 0 | 0 | 95.9% |
| CC(c1ccc(F)cc1)N(C)C(=O)CCl (stereo not drawn) [PCM-0102783] | 30.3% | 47.8% | 0 | 0 | 0 | 0.19 | 47.3% |
| Cc1ccsc1CN(C)C(=O)CCl [PCM-0102785] | 36% | 56.7% | 0 | 0 | 0 | 0.2 | 22.2% |
| CC(C)(C)OC(=O)N1CCN(C(=O)CCl)CC1 [PCM-0102786] | 68.2% | 84% | 0 | 0 | 0 | 0 | 85.9% |
| CN(Cc1ccccc1F)C(=O)CCl [PCM-0102787] | 57.9% | 72.2% | 0 | 0 | 0 | 0 | 57.7% |
| Cc1nc(NC(=O)CCl)sc1-c1ccccc1 [PCM-0102788] | 26.7% | 23.8% | 0 | 0 | 0.09 | 0.36 | 35.7% |
